# Assay: Uptake of doxorubicin into J6456 mouse tumors
# Details: in vivo, J6456 mice, IV, fluorometric (Table 14), read-out: Percent of Injected Dose (DXR)/q Tumor (SD)
# Description: Sized MLVs having one of the three lipid compositions shown in Table 14 below were prepared as above. Doxorubicin was included in the hydration buffer, at a concentration of about 5 mg/ml, and free drug was removed from the sized liposomes by gel filtration.
# Mice innoculated with J6456 lymphoma cells were injected IV with the MLVs (1 umole phospholipid/animal) or with an equivalent amount of free doxorubicin. Tissue distribution of the drug, 24 hours post administration, was determined fluorometrically, with the results shown in Tables 13 below.
compound,measurement,value
"COc1cccc2c1C(=O)c1c(O)c3c(c(O)c1C2=O)C[C@@](O)(C(=O)CO)C[C@@H]3O[C@H]1C[C@H](N)[C@H](O)[C@H](C)O1 [FREE DXR, doxorubicin]",tissue uptake at 24 h,0.4 %ID/g

# — patent US4920016A, “Liposomes with enhanced circulation time” (Linear Technology, Inc., priority 1987, dated 1990)
